From ChEMBL document CHEMBL4014287, “Jesridonin in combination with paclitaxel demonstrates synergistic anti-tumor activity in human esophageal carcinoma cells” (Bioorg Med Chem Lett, 2017)
Active and inactive are the calls of the source. No cut-off for these calls is given here.

Key:
ECa-109 cell line [1] = assay: Antitumor activity against human EC109 cells xenografted in nude mouse assessed as induction of necrosis at 5 mg/kg measured after 21 days by H and E staining based assay; assay type: functional, organism-based
ECa-109 cell line [2] = assay: Induction of apoptosis in human EC109 cells assessed as nuclear condensation at 5 nM after 24 hrs by Hochest 33258 staining based fluorescent microscopic analysis; assay type: functional, cell-based
ECa-109 cell line [3] = assay: Induction of apoptosis in human EC109 cells assessed as nuclear shrinkage at 5 nM after 24 hrs by Hochest 33258 staining based fluorescent microscopic analysis; assay type: functional, cell-based
Mus musculus [4] = assay: Toxicity in nude mouse xenografted with human EC109 cells assessed as body weight loss at 5 mg/kg measured after 21 days; assay type: organism-based; settings: in vivo, 504 h
ECa-109 cell line [5] = assay: Cytotoxicity against human EC109 cells assessed as reduction in cell viability after 24 hrs by MTT assay; assay type: functional, cell-based
ECa-109 cell line [6] = assay: Induction of apoptosis in human EC109 cells assessed as necrotic cells at 5 nM after 24 hrs by Annexin V-FITC/propidium iodide staining based flow cytometry (reference value: 1.6 %); assay type: functional
ECa-109 cell line [7] = assay: Induction of apoptosis in human EC109 cells assessed as viable cells at 5 nM after 24 hrs by Annexin V-FITC/propidium iodide staining based flow cytometry (reference value: 96.1%); assay type: functional; settings: ECa-109, 24 h, read-out: Activity
Mus musculus [8] = assay: Toxicity in nude mouse xenografted with human EC109 cells assessed as pathological changes at 5 mg/kg measured after 21 days; assay type: organism-based; settings: in vivo, 504 h
ECa-109 cell line [9] = assay: Induction of apoptosis in human EC109 cells assessed as late apoptotic cells at 5 nM after 24 hrs by Annexin V-FITC/propidium iodide staining based flow cytometry (reference value: 1%); assay type: functional
Mus musculus [10] = assay: Toxicity in nude mouse xenografted with human EC109 cells assessed as skin ulceration at 5 mg/kg measured after 21 days; assay type: organism-based; settings: in vivo, 504 h
ECa-109 cell line [11] = assay: Induction of apoptosis in human EC109 cells assessed as early apoptotic cells at 5 nM after 24 hrs by Annexin V-FITC/propidium iodide staining based flow cytometry (reference value: 1.3%); assay type: functional

CC(=O)O[C@H]1C(=O)[C@@]2(C)[C@H]([C@H](OC(=O)c3ccccc3)[C@]3(O)C[C@H](OC(=O)[C@H](O)[C@@H](NC(=O)c4ccccc4)c4ccccc4)C(C)=C1C3(C)C)[C@]1(OC(C)=O)CO[C@@H]1C[C@@H]2O [PACLITAXEL]
Activity (ECa-109 cell line [1]): Active
Activity (ECa-109 cell line [2]): Active
Activity (ECa-109 cell line [3]): Active
Activity (Mus musculus [4]): Non-Toxic
Activity (ECa-109 cell line [5]): Dose-dependent effect
Activity (ECa-109 cell line [6]): 0.5%
viability at 0.005 µM (ECa-109 cell line [7]): 94.1%
Activity (Mus musculus [8]): Non-Toxic
Activity (ECa-109 cell line [9]): 0.9%
Activity (Mus musculus [10]): Non-Toxic
Activity (ECa-109 cell line [11]): 4.5%
